Reference: patent publication US20040152903A1, “6-chloro-3-pyridylmethylpropylamine derivatives, preparation process thereof and bactericides” (priority 2004, published 2004)

Assays:
wheat powdery mildew [1] = assay: Permeable mobility fungicidal effect test in leaf section of wheat powdery mildew; assay type: in vivo; settings: length of non-contracted area relative to compound (m-2); 200 mg/l, 0.5 μl applied to wheat leaf (Abukumawase)
Description: (Permeable Mobility Fungicidal Effect Test in Leaf Section of Wheat Powdery Mildew) In the test example 4, permeable mobility fungicidal effect test was performed on the leaf section of wheat powdery mildew with regard to the compounds I-1 to 27 according to the present invention and the comparative compounds (a) to (d), and (m-1) to (m-3) with the method described later. <Test Method> The compound in the form of a wettable powder obtained by Formulation 2 or the like was diluted and suspended with water to a predetermined concentration (200 mg/l), and 0.5 μl of the suspension was applied to a 2 to 3 cm leaf portion from the root of the three leaves of the 4th to 4.5th leaf period wheat (variety: Abukumawase) cultured by using a square plastic pot (size: 6.4 cm×6.4 cm). After these wheat leaves were subject to still standing in a glass house (temperature: 20 to 24° C., relative humidity: 20 to 70 RH) for one day, the spores of wheat powdery mildew were inoculated over the leaves by sprinkling the same with a brush from an infected leaf, a disease was contracted in the same glass house. The length of a non-contracted area generated from the applied portion to the direction of the leaf top was measured, and a relative mobility to the compound (m-2) was calculated with the following calculation […] by using the comparative compound (m-2) as a standard compound. Relative mobility=(Length of non-contracted area in each chemical section (cm)/Length of non-contracted area of compound (m-2) (cm)) (Equation 4)

Leptosphaeria nodorum = assay: Antifungal activity test (PDA plate, hypha extension inhibition); assay type: cell-based; settings: 0.8 ppm in PDA culture medium
Description: (§1) (Antifungal Activity Test against Various Pathogenic Fungi) For each of the compounds I-1 to 27 of the present invention and the comparative compounds (a) to (d), (m-1) and (m-3), 20 mg was weighed and dissolved in 2 ml of dimethylsulfoxide, and a double dilution row in 10 steps was prepared by further using dimethylsulfoxide. A 0.6 ml portion of these solutions was each added to 60 ml of a PDA culture medium (potato-dextrose-agar culture medium) at about 60° C., they were well mixed in a 100 ml Erlenmeyer flask, the solution was poured into a schale and was solidified, the plate culture media containing the compounds according to the present invention with final concentrations of 100, 50.0, 25.0, 12.5, 6.3, 3.2, 1.6, 0.8, 0.4 and 0.2 mg/l were prepared. On the other hand, the specimen bacteria cultured on the plate culture media beforehand was punched by a 4 mm diameter cork borer, and was inoculated on the plate culture media containing the aforementioned chemicals. After the inoculation, the bacteria were cultured at the optimum growth temperature of each bacterium for 1 to 7 days (for this optimum growth temperature, LIST OF CULTURES 1996 Microorganisms 10th edition published by Fermentation Research Institute (Foundation) can be referred to.), and the growth of the bacteria was measured by the diameter of a colony. […] R=100(dc−dt)/dc (Equation 3) [wherein each symbol is shown as follows: R=Hypha extension inhibition rate (%), dc=Diameter of colony on no-treated plate, dt=Diameter of colony on chemical-treated plate.] The results obtained above was evaluated in 5 steps in accordance with the following examination scale. <Growth Inhibition> 5: Hypha extension inhibition rate of 90% or more 4: Hypha extension inhibition rate of from 70% to less than 90% 3: […] 2: […] In addition, the abbreviations in Table 10 are as follows: L.n: Leptosphaeria nodorum

wheat powdery mildew [2] = assay: Test of control effect on wheat powdery mildew; assay type: in vivo; parameters: Control Value: scale not given here; settings: wettable powder 125 mg/l, 100 liters/10 a, wheat seedlings (Nourin 64), examined 9th to 14th day after inoculation
Description: (Test of Control Effect on Wheat Powdery Mildew) Wettable powders were prepared from compounds of the present invention I-1 to I-27 and comparative compounds (a) to (d), (m-1) and (m-3). The obtained wettable powder was diluted and suspended with water to provide the predetermined concentration (125 mg/l), and was sprinkled onto seedlings of wheat (variety: “Nourin 64”) at the first to the second leaf period which were cultivated using square plastic pots (size: 6.4 cm×6.4 cm) in a rate of 100 liters/10 a (ares). After drying the sprinkled leaves with air, a suspension of wheat powdery mildew spores taken from infected leaves was inoculated by spraying onto the sprinkled leaves. They were supervised in a green house (temperature: 20 to 24° C., relative humidity: 20 to 70 RH). On the 9th to 14th day after the inoculation, the infection degree was examined according to the following scale and the control value of each compound was calculated by the following calculation equation 1. [table]

cucumber powdery mildew = assay: Test of control effect on cucumber powdery mildew; assay type: in vivo; settings: wettable powder 100 mg/l, 100 liters/10 a, cucumber (Sagamihanpakufushinari), examined 9th to 14th day after inoculation
Description: (Test of Control Effect on Cucumber Powdery Mildew) The wettable powders formulated by using each of the compounds I-1 to 27 according to the present invention and the comparative compounds (a) to (d), (m-1) and (m-3) were each diluted and suspended with water to a predetermined concentration (100 mg/l), the suspension was sprinkled over the first to the second leaf period cucumbers (variety: “[…]”) cultivated by using a square plastic pot (size: 6.4 cm×6.4 cm) in a rate of 100 liters/10 a (ares). After the sprinkled leaves were air-dried, the spores were inoculated over the leaves by sprinkling the same with a brush from an infected leaf, a disease was contracted in a glass house (temperature: 20 to 24° C., relative humidity: 20 to 70 RH). On the 9th to 14th day after the inoculation, the infection degree was examined according to the following scale and the control value of each compound was calculated by the following calculation equation 2: (Examination Scale) [table]

Botrytis cinerea = assay: Antifungal activity test (PDA plate, hypha extension inhibition); assay type: cell-based; settings: 1.6 ppm in PDA culture medium
Description: as §1, with “B.c: Botrytis cinerea” for “L.n: Leptosphaeria nodorum”

Septoria tritici = assay: as above; assay type: cell-based; settings: 100 ppm in PDA culture medium
Description: as §1, with “S.t: Septoria tritici” for “L.n: Leptosphaeria nodorum”

Question: With `CC(Cc1ccc(F)c(OC(F)(F)F)c1)CN(C)Cc1ccc(Cl)nc1` (stereo not shown) [Compound I-16] as the molecule, how does the “Relative Mobility” value (wheat powdery mildew [1]) read?
Answer: The value was 9.

Question: And the “Growth Inhibition L.n (0.8)” value (Leptosphaeria nodorum)?
Answer: Its value is 5 (Hypha extension inhibition rate of 90% or more).

Question: What about the “Control Value” (wheat powdery mildew [2]) of the same molecule?
Answer: The value was 100.

Question: And the “Control Value” (cucumber powdery mildew)?
Answer: The value was 100.

Question: And the “Growth Inhibition B.c (1.6)” value (Botrytis cinerea)?
Answer: The value was 4 (Hypha extension inhibition rate of from 70% to less than 90%).

Question: What does the source list for `CC(Cc1ccc(C(F)(F)F)cc1F)CN(C)Cc1ccc(Cl)nc1` (stereo not shown) [Compound I-8]?
Answer: Relative Mobility (wheat powdery mildew [1]): 5; Control Value (wheat powdery mildew [2]): 100; Control Value (cucumber powdery mildew): 100; Growth Inhibition S.t (100) (Septoria tritici): 4 (Hypha extension inhibition rate of from 70% to less than 90%); Growth Inhibition B.c (1.6) (Botrytis cinerea): 4 (Hypha extension inhibition rate of from 70% to less than 90%)
